# Assay results as given in US11440914B2, “Tricyclic amine compounds as CDK2 inhibitors” (Incyte Corporation, priority 2019, dated 2022).
# pIC50: −log10 of the molar value.
# Key:
# [1] = system: CCNE1-amplified cell lines (OVCAR3, COV318); experiment: Cell cycle analysis by FACS in CCNE1-amplified cell lines; assay type: cell-based, human; details: for percentage of S phase cells: 100 nM, 16 hours
# Procedure: (§1) The effect of CDK4/6-inhibition in CCNE1-amplified versus CCNE1-non-amplified cell lines was evaluated.
# (§2) A similar experiment was performed in a larger set of CCNE1-amplified cell lines (COV318 and OVCAR3) and CCNE1-non-amplified cell lines (COV504, OV56, and Igrov1) (FIG. 6).
# To confirm the role of p16 in CDK2-sensitivity of CCNE-amplified cells, COV318 cells were treated with control or p16-specific siRNA.
# (§3) Bulk DNA was stained with DAPI. Compound-treated and DMSO treated control cells were acquired with CytoFlex (Beckman Coulter) and were analyzed using the FlowJo software. For cell cycle analysis of cells with siRNA knockdown, 72 hours after siRNA transfection, cells exposed to […] for 3 hours before detection of Click-iT Alexa Fluor® 647 azide kit.
# [2] = system: Rb phosphorylated on serine 780 in CCNE1 amplified COV318 cells; experiment: CDK2 pRb (S780) HTRF cellular assay; assay type: cell-based; details: Homo sapiens, overnight treatment, read-out: IC50 in p-RB S780 HTRF cellular assay
# Procedure: CDK2 pRb ([…]) HTRF cellular assay enables the quantitative detection of Rb phosphorylated on […] in CCNE1 amplified COV318 cells. The assay comprised two antibodies: Europium cryptate labeled anti-Phospho-Rb […] antibody (donor) and d2 labeled anti-Rb antibody (acceptor). In brief, COV318 cells were seeded into the wells of 96-well plate at a density of 25,000 per well with 9-point, 3-fold serial diluted compounds and cultured overnight at 37 degree with 5% CO2. The final concentrations of compounds start from 3 μM. […] After 2 h of incubation at room temperature, HTRF signals were measured on the PHERAstar microplate reader (BMG Labtech), using 340 nm as excitation wavelength, a 620 nm filter for the Europium donor fluorescence, and a 665-nm filter for the acceptor fluorescence detection. HTRF signals were calculated as the HTRF ratio (ratio of fluorescence measured at 665 nm and 620 nm)×10000.
# CDK2/Cyclin E1 = CDK2/Cyclin E1 (Homo sapiens (Human), UniProt P24941); experiment: CDK2/Cyclin E1 HTRF enzyme activity assay; assay type: biochemical; details: 1 mM ATP
# Procedure: CDK2/Cyclin E1 enzyme activity assays utilize full-length human CDK2 co-expressed as N-terminal GST-tagged protein with FLAG-Cyclin E1 in a baculovirus expression system (Carna Product Number 04-165). Assays are conducted in white 384-well polystyrene plates in a final reaction volume of 8 μL. CDK2/Cyclin E1 (0.25 nM) is incubated with compounds (40 nL serially diluted in DMSO) in the presence of ATP (50 μM or 1 mM) and 50 nM ULight™-labeled eIF4E-binding protein 1 (THR37/46) peptide (PerkinElmer) in assay buffer (containing 50 mM HEPES pH 7.5, 1 mM EGTA, 10 mM MgCl2, 2 mM DTT, 0.05 mg/ml BSA, and 0.01% Tween 20) for 60 minutes at room temperature. The reactions are stopped by the addition of EDTA and Europium-labeled anti-phospho-4E-BP1 antibody (PerkinElmer), for a final concentration of 15 mM and 1.5 nM, respectively. HTRF signals are read after 1 hour at room temperature on a PHERAstar FS plate reader (BMG Labtech). Data is analyzed with IDBS XLFit and GraphPad Prism 5.0 software using a three or four parameter dose response curve to determine IC50 for each compound.
# [3] = system: Rb phosphorylation at S780 in CCNE1-amplified cell lines (OVCAR3 and COV318); experiment: Western blot of Rb phosphorylation at S780 in CCNE1-amplified cell lines; assay type: cell-based, human; details: various doses, 1 or 15 hours
# Procedure: (§4) The effect of CDK4/6-inhibition on Rb phosphorylation at S780 in CCNE1-amplified versus CCNE1-non-amplified cell lines was evaluated. […] One or 15 hours after treatment, the cells were harvested and total protein was extracted and analyzed by western blot (FIG. 8).
# (§5) Whole cell extracts were prepared using RIPA buffer (Thermo Scientific, 89900) with a Halt Protease and Phosphatase Inhibitor Cocktail (Thermo Scientific, 78440). Protein concentration was quantified with a BCA Protein Assay Kit (Thermo Scientific, 23225) and […] of protein lysates were loaded for SDS-PAGE using precast gradient gels (Bio-Rad, Hercules, No. 456-1094). Samples were diluted in 5× Laemmli buffer (300 mM Tris-HCl pH 6.8, 10% SDS (w/v), 5% 2-mercaptoethanol, 25% glycerol (v/v), 0.1% bromophenol blue w/v) and boiled for 5 minutes. […] of proteins were separated by 8-15% SDS-PAGE and transferred onto polyvinylidene fluoride (PVDF) membranes. Unspecific binding sites on the PVDF membranes were blocked with 5% non-fat milk in TBST (20 mM Tris-HCl, pH 7.6, 137 mM NaCl, 1% Tween-20). […] Images were captured by Luminescence/Fluorescence Imaging System Odyssey CLx Imager (LI-COR).
# [4] = system: Rb phosphorylation at S780 in CCNE1-non-amplified cell lines (COV504 and OV56); experiment: Western blot of Rb phosphorylation at S780 in CCNE1-non-amplified cell lines; assay type: cell-based, human; details: various doses, 1 or 15 hours
# Procedure: as §4, §5
# [5] = system: CCNE1-non-amplified cell lines (COV504, OV56, Igrov1); experiment: Cell cycle analysis by FACS in CCNE1-non-amplified cell lines; assay type: cell-based, human
# Procedure: as §1, §2, §3
compound,measurement,setting,value
"C[C@@]1(O)CCC[C@H]1n1c(=O)ccc2cnc(NC3CCN(S(C)(=O)=O)CC3)nc21 [Compound A, 8-((1R,2R)-2-hydroxy-2-methylcyclopentyl)-2-((1-(methylsulfonyl)piperidin-4-yl)amino)pyrido[2,3-d]pyrimidin-7(8H)-one]",percentage of S phase cells,"[1]; COV318, control siRNA",significantly decreased
same,percentage of S phase cells,"[1]; COV318, p16 knocked down by siRNA, vs DMSO",not significantly decreased
same,pIC50,[2],7.43
"Cc1nc2c(n1C1CC1)-c1nc(N[C@H]3CCN(S(=O)(=O)c4cnn(C)c4)C[C@H]3C)ncc1CC2 [Example 32, 1-Cyclopropyl-2-methyl-N-((3R,4S)-3-methyl-1-((1-methyl-1H-pyrazol-4-yl)sulfonyl)piperidin-4-yl)-4,5-dihydro-1H-imidazo[4,5-h]quinazolin-8-amine]",pIC50,CDK2/Cyclin E1,≥ 7.30
CC(=O)c1c(C)c2cnc(Nc3ccc(N4CCNCC4)cn3)nc2n(C2CCCC2)c1=O [palbociclib],Rb phosphorylation at S780,[3],not in CCNE1-amplified cell lines
same,Rb phosphorylation at S780,[4],blocked Rb phosphorylation
same,percentage of cells at the S phase as compared to DMSO,"[5]; COV504, OV56, Igrov1, 16 hours after treatment",decreased in CCNE1-non-amplified cell lines in a dose-dependent fashion
same,proliferation (cell cycle analysis by FACS),"[5]; COV504 cells, 16 hours, increasing concentrations",dose-dependent inhibition of the proliferation
same,percentage of cells at the S phase as compared to DMSO,"[1]; COV318 and OVCAR3, 16 hours after treatment",not significantly different
same,pIC50,[2],< 5.52
